Patent US5641485A, “Caledothricins used in the treatment mycotic diseases” (Hoffmann-La Roche Inc., priority 1994, dated 1997)
Converted amounts (≈) assume the structure as drawn. Where two headings read alike, the source gives them in different places.

Legend:
Absidia corymbifera = experiment: In vitro antifungal activity (MIC) against Absidia corymbifera; type: cell-based; conditions: Lichtheimia corymbifera; strain IFO8084; pH 7.0, 27° C., 10,000 cfu/ml, 0.2% low melting point agarose
Method: (§1) MIC is defined as the minimal concentration of test compound at which no visible growth is detected. Culture media employed for measuring MICs were yeast nitrogen base (Difco) supplemented with 1% of glucose, 0.2% of low melting point agarose and 0.25% of K2 HPO4 (pH 7.0). The low melting point agarose was omitted when antifungal activity against Candida albicans and Cryptococcus neoformans was measured. The culture media were inoculated with fungal cells at the final concentration of 10,000 cfu/ml. Plates were incubated for 1-12 days at 27° C.

Trichosporon beigelii = experiment: In vitro antifungal activity (MIC) against Trichosporon beigelii; type: cell-based; conditions: ATCC28592, strain ATCC 28592, pH 7.0, 27° C., 10,000 cfu/ml, 0.2% low melting point agarose
Method: as §1

[1] = test system: Trichophyton mentagrophytes; experiment: In vitro antifungal activity (MIC) against Trichophyton mentagrophytes; type: cell-based; conditions: strain CF1007, pH 7.0, 27° C., 10,000 cfu/ml, 0.2% low melting point agarose
Method: as §1

Aspergillus fumigatus [2] = conditions: pH 7.0, 27° C., 10,000 cfu/ml, 0.2% low melting point agarose
Method: as §1

Candida albicans = experiment: microbe, parasite or virus in culture
Method: as §1

Cryptococcus neoformans = experiment: microbe, parasite or virus in culture
Method: as §1

Aspergillus fumigatus [3] = experiment: microbe, parasite or virus in culture; conditions: pH 7
Method: as §1

OC(Cn1cncn1)(Cn1cncn1)c1ccc(F)cc1F [FCZ, fluconazole]
MIC (Absidia corymbifera): > 200 µg/mL | MIC (Trichosporon beigelii): 0.39 µg/mL (≈ 1.27 µM) | MIC [1]: > 200 µg/mL | MIC (Aspergillus fumigatus [2]; strain 437): > 200 µg/mL | MIC (Aspergillus fumigatus [2]; strain CF1004): > 200 µg/mL | MIC (Candida albicans; ATCC48130, pH 7, strain ATCC48130, pH 7.0, 27° C., 10,000 cfu/ml): > 200 µg/mL | MIC (Candida albicans; pH 7, strain 652, pH 7.0, 27° C., 10,000 cfu/ml): > 200 µg/mL | MIC (Candida albicans; pH 7, strain AD, pH 7.0, 27° C., 10,000 cfu/ml): 200 µg/mL (≈ 653 µM) | MIC (Candida albicans; pH 7, strain C42, pH 7.0, 27° C., 10,000 cfu/ml): > 200 µg/mL | MIC (Candida albicans; pH 7, strain KB, pH 7.0, 27° C., 10,000 cfu/ml): > 200 µg/mL | MIC (Cryptococcus neoformans; pH 7, strain 422, pH 7.0, 27° C., 10,000 cfu/ml): > 200 µg/mL | MIC (Cryptococcus neoformans; pH 7, strain MTU13001, pH 7.0, 27° C., 10,000 cfu/ml): 12.5 µg/mL (≈ 40.8 µM) | MIC (Aspergillus fumigatus [3]): > 200 µg/mL
